Test results taken from patent US12594228B2, “Composition for hair protection or hair strengthening” (AMOREPACIFIC CORPORATION, priority 2024, dated 2026).

Experiments:
[1] = Tensile strength of bleached hair tresses treated with test substance (MTT175); design: species or system human; details: test substance 0.01 wt % in purified water and ethanol (80 wt %), about 30 minutes; FIG. 4, FIG. 5
Experimental: The compositions in Table 2 above were applied to human hair to compare tensile strength.
(§1) Specifically, bleached hair tresses (1 g, manufactured by Beaulax) were prepared. The hair tresses were washed using a basic shampoo without conditioning function, rinsed for 1 minute, and dried for 2 minutes. The dried hair tresses (1 g) were immersed in 100 g of a solution in which the test substance (the mixture of Example 1 or the mixture of Comparative Example 1 in Table 2 above) was dissolved at 0.1 wt % (wherein the solution is a solution in which the test substance (0.1 wt %) is dissolved in purified water (remaining amount) for about 30 minutes. The immersed hair tresses were rinsed in running water for 1 minute and then naturally dried for more than 12 hours. Thirty hair strands were randomly selected from each hair tresses treated with the test substance. Thirty hair strands were randomly selected from the control hair tresses that were not treated with the test substance. The tensile strength of each selected hair was measured using an MTT175 (manufactured by DiaStron) device.
The tensile strength was compared by applying the test substance (the above 5 types of tripeptides) to the hair using the same method as in ‘Experimental Example 2. (1) Measurement of tensile strength’.
as §1, with “(synthesized tripeptide)” for “(the mixture of Example 1 or the mixture of Comparative Example 1 in Table 2 above)”, “0.01” for “0.1”, “(0.01” for “(0.1”, “(residue) and ethanol (80 wt %))” for “(remaining amount)”
Specifically, the tripeptide was synthesized using the same method as the peptide synthesis method of ‘Experimental Example 3’ above, but palmitic acid was added to the N-terminus of the peptide (reagents: HBTU (Hexafluorophosphate Benzotriazole), NMM (N-Methylmorpholine), DMF (Dimethylformamide), 1 hour at room temperature, concentration 0.3 M), and a tripeptide with palmitic acid covalently bonded to the N-terminus (i.e., palmitoyl tripeptide) was synthesized. After that, the test substance (tripeptide with palmitic acid covalently bonded to the N-terminus) was applied to the hair and the tensile strength was compared using the same method as in ‘Experimental Example 3. (1) Measurement of tensile strength’.

[2] = Elasticity (horizontal resistance) of heat-treated hair simulating eyebrows; design: species or system human; details: hair heat-treated at 160° C. 20 times, then 0.01 wt % test substance in purified water, about 30 minutes; FIG. 11
Experimental: (§2) Specifically, since it is difficult to obtain eyebrows to be used for evaluation directly from a living body, human hair corresponding to the thickness of eyebrows was selected through Fibra.one (manufactured by DiaStron). The length was prepared to a level that can be applied to a machine measuring tensile strength. Heat-treated hair was prepared by applying pressure by hand at 160° C. 20 times with a hair straightener to the prepared human hair tresses. Hair that had not been heat-treated was prepared as a control group (untreated hair in FIGS. 9 and 11). In Experimental Example 6, the untreated hair was not treated with the test substance.
(§3) After that, the heat-treated hair tresses were treated with the test substance, KCV (KCV-treated hair in FIGS. 9 and 11). Specifically, the prepared tresses (1 g, manufactured by Beaulax) were washed using a basic cleanser without conditioning function, rinsed for 1 minute, and dried for 2 minutes. […]
The elasticity of KCV-treated hair, heat-damaged hair, and untreated hair was compared. Elasticity was defined as the horizontal resistance of hair, and elasticity was measured through each step of [Method for Measuring Hair Elasticity] below (see FIG. 10). […]

[3] = Tensile strength of heat-treated hair simulating eyebrows (Fibra.one); design: species or system human; details: hair heat-treated at 160° C. 20 times, then 0.01 wt % test substance in purified water, about 30 minutes; FIG. 9
Experimental: as §2, §3
Specifically, 30 hair strands were randomly selected from each tress (KCV-treated hair) treated with the test substance. […] The tensile strength of each selected hair was measured using a Fibra.one (manufactured by DiaStron).

hair structural proteins = experiment: Denaturation enthalpy of hair structural proteins by DSC; details: bleached hair, test substance 0.01 wt % in purified water and ethanol (80 wt %), 30 minutes; FIG. 3
Experimental: The denaturation enthalpy of hair structural proteins was compared according to whether or not the test substance was treated using a DSC (Differential Scanning calorimetry) analyzer. DSC is used as an analysis method to confirm the stability of hair structural proteins. Damage to the hair reduces the stability of hair structural proteins and decreases the enthalpy of denaturation. Specifically, bleached hair tresses (1 g. manufactured by Beaulax) were prepared. The hair tresses were washed using a basic shampoo without a conditioning function, rinsed for 1 minute, and dried for 2 minutes. The dried hair tresses (1 g) were immersed in 100 g of a solution in which the test substance (mixture of Example 1 in Table 2 above) was dissolved at 0.01 wt % (at this time, the solution is a solution in which the mixture of Example 1 (0.01 wt %) is dissolved in purified water (residue) and ethanol (80 wt %)) for 30 minutes. The immersed hair tresses were rinsed in running water for 1 minute and then naturally dried for more than 12 hours. Each treated hair tress was cut into 1 mm lengths, placed in an aluminum high-pressure capsule with 3-5 mg of the cut hair tress and 6-15 mg of distilled water, and combined. […] The denaturation enthalpies of the prepared DSC samples were measured using a DSC (Discovery DSC 250, TA Instruments) device (50-190 degrees, 10 degrees/min).
The denaturation enthalpy was measured by the same method as in ‘Experimental Example 2. (2) Measurement of denaturation enthalpy’, but the denaturation enthalpy was compared by applying applied CWK tripeptide as a test substance to hair.
The denaturation enthalpy was measured by the same method as in ‘Experimental Example 2. (2) Measurement of denaturation enthalpy’, but the denaturation enthalpy was compared by applying a tripeptide with palmitic acid covalently bonded to the N-terminus (i.e. palmitoyl tripeptide) to hair as the test substance.

[4] = Penetration and binding in hair by confocal microscopy; details: fluorescent substance applied to hair, FIG. 6, FIG. 7
Source text: A green fluorescent substance (FITC; Fluorescein isothiocyanate) was conjugated to palmitoyl-CWK, a tripeptide (i.e., palmitoyl tripeptide) covalently bound to palmitic acid at the N-terminus (fluorescent labeling) and applied to hair. After that, the change in hair structure that affects the increase in hair tensile strength was confirmed by comparing the colored areas using a confocal microscopy.
Meanwhile, for comparison of hair penetration routes, the water-soluble fluorescent substance 5-(4-Dimethylaminobenzylidene) rhodanine was applied to the hair, and the colored area (indicated in gray in FIG. 7) was confirmed using a confocal microscope.

Compound	tensile strength of hair compared to control bleached hair tresses [1]	denaturation enthalpy of hair structural protein compared to control hair (hair structural proteins)	also measured
KCL	significantly increased	–	–
KCV	significantly increased	–	elasticity compared to heat-damaged hair tresses [2]: significantly increased; tensile strength (break load) per area compared to heat-damaged hair tresses [3]: significantly increased
palmitoyl-CWK [pal-CWK]	significantly increased	significantly increased	–
CKF	significantly increased	–	–
CWK	significantly increased	significantly increased	–
palmitoyl-KCV [pal-KCV]	significantly increased	significantly increased	–
palmitoyl-CKF [pal-CKF]	significantly increased	significantly increased	–
CN(C)c1ccc(C=C2SC(=S)NC2=O)cc1 [5-(4-Dimethylaminobenzylidene) rhodanine]	–	–	penetration and binding in hair (colored areas) [4]: barely remained in the cuticle layer on the hair surface and did not fill the lost area of CMC inside the hair
PCP [reference compound]	not significant	–	–
